Laboratory results reported in patent publication US9944647B2 (Incyte Corporation, priority 2015, dated 2018).

Target: LSD-1 enzyme (Homo sapiens (Human), UniProt O60341)
Experiment: LANCE LSD1/KDM1A demethylase assay (LSD1 histone demethylase biochemical assay)
Details: 1 nM LSD-1 enzyme, 1 hour preincubation at 25° C., Biotin-labeled Histone H3 peptide substrate
Procedure: Example A: LSD1 Histone Demethylase Biochemical Assay
LANCE LSD1/KDM1A demethylase assay—10 μL of 1 nM LSD-1 enzyme (ENZO BML-SE544-0050) in the assay buffer (50 mM Tris, pH 7.5, 0.01% Tween-20, 25 mM NaCl, 5 mM DTT) were preincubated for 1 hour at 25° C. with 0.8 μL compound/DMSO dotted in black 384 well polystyrene plates. […] Reactions were stopped by addition of 10 μL 1×LANCE Detection Buffer (PerkinElmer CR97-100) supplemented with 1.5 nM Eu-anti-unmodified H3K4 Antibody (PerkinElmer TRF0404), and 225 nM LANCE Ultra Streptavidin (PerkinElmer TRF102) along with 0.9 mM Tranylcypromine-HCl (Millipore 616431). After stopping the reactions plates were incubated for 30 minutes and read on a PHERAstar FS plate reader (BMG Labtech).

Compound	IC50 [µM]
COc1ncc(-c2c(-c3ccc(C#N)cc3)nc(OC[C@@H]3CCCN(CCO)C3)n3ccnc23)cc1F [Example 57, 4-(8-(5-fluoro-6-methoxypyridin-3-yl)-5-{[(3R)-1-(2-hydroxyethyl)piperidin-3-yl]methoxy}imidazo[1,2-c]pyrimidin-7-yl)benzonitrile]	≤ 0.05
CN(C)C1CCN(c2nc(-c3ccc(C#N)cc3)c(-c3cc(F)c4c(c3)oc(=O)n4C)c3nccn23)CC1 [Example 58, 4-[5-[4-(dimethylamino)piperidin-1-yl]-8-(4-fluoro-3-methyl-2-oxo-2,3-dihydro-1,3-benzoxazol-6-yl)imidazo[1,2-c]pyrimidin-7-yl]benzonitrile]	≤ 0.05
CN1CCC[C@@H](COc2nc(-c3ccc(C#N)cc3)c(-c3cc(F)c4c(c3)oc(=O)n4C)c3nccn23)C1 [Example 59, 4-(8-(4-fluoro-3-methyl-2-oxo-2,3-dihydro-1,3-benzoxazol-6-yl)-5-{[(3R)-1-methylpiperidin-3-yl]methoxy}imidazo[1,2-c]pyrimidin-7-yl)benzonitrile]	≤ 0.05
CN(C)C1CCN(c2nc(-c3ccc(C#N)cc3)c(-c3cnc4c(c3)oc(=O)n4C)c3nccn23)CC1 [Example 60, 4-[5-[4-(dimethylamino)piperidin-1-yl]-8-(3-methyl-2-oxo-2,3-dihydro[1,3]oxazolo[4,5-b]pyridin-6-yl)imidazo[1,2-c]pyrimidin-7-yl]benzonitrile]	≤ 0.05
CN1CCC[C@@H](COc2nc(-c3ccc(C#N)cc3)c(-c3cnc4c(c3)oc(=O)n4C)c3nccn23)C1 [Example 61, 4-(8-(3-methyl-2-oxo-2,3-dihydro[1,3]oxazolo[4,5-b]pyridin-6-yl)-5-{[(3R)-1-methylpiperidin-3-yl]methoxy}imidazo[1,2-c]pyrimidin-7-yl)benzonitrile]	0.05 to 0.5
CN1C(=O)Cc2cc(-c3c(-c4ccc(C#N)cc4)nc(N4CCC(N(C)C)CC4)n4ccnc34)ccc21 [Example 62, 4-[5-[4-(dimethylamino)piperidin-1-yl]-8-(1-methyl-2-oxo-2,3-dihydro-1H-indol-5-yl)imidazo[1,2-c]pyrimidin-7-yl]benzonitrile]	≤ 0.05
Cc1nc2cc(-c3c(-c4ccc(C#N)cc4)nc(N4CCC(N(C)C)CC4)n4ccnc34)ccc2n1C [Example 63, 4-[5-[4-(dimethylamino)piperidin-1-yl]-8-(1,2-dimethyl-1H-benzimidazol-5-yl)imidazo[1,2-c]pyrimidin-7-yl]benzonitrile]	≤ 0.05
CN1CCC[C@@H](COc2nc(-c3ccc(C#N)cc3)c(-c3ccc4c(c3)nc(C(F)F)n4C)c3nccn23)C1 [Example 64, 4-(8-[2-(difluoromethyl)-1-methyl-1H-benzimidazol-5-yl]-5-{[(3R)-1-methylpiperidin-3-yl]methoxy}imidazo[1,2-c]pyrimidin-7-yl)benzonitrile]	≤ 0.05
Cc1nc2cc(-c3c(-c4ccc(C#N)cc4)nc(OC[C@@H]4CCCN(C)C4)n4ccnc34)ccc2n1C [Example 65, 4-(8-(1,2-dimethyl-1H-benzimidazol-5-yl)-5-{[(3R)-1-methylpiperidin-3-yl]methoxy}imidazo[1,2-c]pyrimidin-7-yl)benzonitrile]	≤ 0.05
Cc1ncc(-c2c(-c3ccc(C#N)cc3)nc(N3CCC(N(C)C)CC3)n3ccnc23)cc1C#N [Example 66, 5-{7-(4-cyanophenyl)-5-[4-(dimethylamino)piperidin-1-yl]imidazo[1,2-c]pyrimidin-8-yl}-2-methylnicotinonitrile]	0.05 to 0.5
COC(=O)N(C)c1ccc(-c2c(-c3ccc(C#N)cc3)nc(N3CCC(N(C)C)CC3)n3ccnc23)cn1 [Example 67]	0.05 to 0.5
Cc1cc(-c2c(-c3ccc(C#N)cc3)nc(N3CCC(N(C)C)CC3)n3ccnc23)cnc1C [Example 68, 4-[5-[4-(dimethylamino)piperidin-1-yl]-8-(5,6-dimethylpyridin-3-yl)imidazo[1,2-c]pyrimidin-7-yl]benzonitrile]	≤ 0.05
COc1ncc(-c2c(-c3ccc(C#N)cc3)nc(OC[C@@H]3CCCN(C)C3)n3ccnc23)cc1C [Example 69, 4-(8-(6-methoxy-5-methylpyridin-3-yl)-5-{[(3R)-1-methylpiperidin-3-yl]methoxy}imidazo[1,2-c]pyrimidin-7-yl)benzonitrile]	≤ 0.05
Cc1ncc(-c2c(-c3ccc(C#N)cc3)nc(OC[C@@H]3CCCN(C)C3)n3ccnc23)cc1C#N [Example 70, 5-(7-(4-cyanophenyl)-5-{[(3R)-1-methylpiperidin-3-yl]methoxy}imidazo[1,2-c]pyrimidin-8-yl)-2-methylnicotinonitrile]	≤ 0.05
Cc1ccc(-c2c(-c3ccc(C#N)cc3)nc(OC[C@@H]3CCCN(C)C3)n3ccnc23)cc1CO [Example 71, 4-(8-[3-(hydroxymethyl)-4-methylphenyl]-5-{[(3R)-1-methylpiperidin-3-yl]methoxy}imidazo[1,2-c]pyrimidin-7-yl)benzonitrile]	≤ 0.05
Cc1ccc(-c2c(-c3ccc(C#N)cc3)nc(OC[C@@H]3CCCN(C)C3)n3ccnc23)c(CO)c1 [Example 72, 4-(8-[2-(hydroxymethyl)-4-methylphenyl]-5-{[(3R)-1-methylpiperidin-3-yl]methoxy}imidazo[1,2-c]pyrimidin-7-yl)benzonitrile]	≤ 0.05
Cc1ccc(-c2c(-c3ccc(C#N)cc3)nc(OC[C@@H]3CCCN(C)C3)n3ccnc23)cn1 [Example 73, 4-[5-{[(3R)-1-methylpiperidin-3-yl]methoxy}-8-(6-methylpyridin-3-yl)imidazo[1,2-c]pyrimidin-7-yl]benzonitrile]	0.05 to 0.5
Cc1ncc(-c2c(-c3ccc(C#N)cc3)nc(OC[C@@H]3CCCN(C)C3)n3ccnc23)cc1F [Example 74, 4-(8-(5-fluoro-6-methylpyridin-3-yl)-5-{[(3R)-1-methylpiperidin-3-yl]methoxy}imidazo[1,2-c]pyrimidin-7-yl)benzonitrile]	0.05 to 0.5
COC(=O)N(C)c1ccc(-c2c(-c3ccc(C#N)cc3)nc(OC[C@@H]3CCCN(C)C3)n3ccnc23)cc1F [Example 75]	0.05 to 0.5
CN1CCC[C@@H](COc2nc(-c3ccc(C#N)cc3)c(-c3ccc4c(c3)OC(C(=O)N(C)C)CO4)c3nccn23)C1 (stereo partly drawn) [Example 76, 7-(7-(4-cyanophcnyl)-5-{[(3R)-1-methylpiperidin-3-yl]methoxy}imidazo[1,2-c]pyrimidin-8-yl)-N,N-dimethyl-2,3-dihydro-1,4-benzodioxine-2-carboxamide]	≤ 0.05
CN1CCC[C@@H](COc2nc(-c3ccc(C#N)cc3)c(-c3cnc4c(c3)CCN4C)c3nccn23)C1 [Example 77, 4-(8-(1-mcthyl-2.3-dihydro-1H-pyrrolo[2,3-b]pyridin-5-yl)-5-{[(3R)-1-methylpiperidin-3-yl]methoxy}imidazo[1,2-c]pyrimidin-7-yl)benzonitrile]	≤ 0.05
CN1CCC[C@@H](COc2nc(-c3ccc(C#N)cc3)c(-c3cnc4c(c3)CCCN4C)c3nccn23)C1 [Example 78, 4-[5-{[(3R)-1-methylpiperidin-3-yl]methoxy}-8-(8-methyl-5,6,7,8-tetrahydro-1,8-naphthyridin-3-yl)imidazo[1,2-c]pyrimidin-7-yl]benzonitrile]	≤ 0.05
CN1CCC[C@@H](COc2nc(-c3ccc(C#N)cc3)c(-c3ccc4c(c3)N(C)C(=O)CC4)c3nccn23)C1 [Example 79, 4-(8-(1-methyl-2-oxo-1,2,3,4-tetrahydroquinolin-7-yl)-5-{[(3R)-1-methylpiperidin-3-yl]methoxy}imidazo[1,2-c]pyrimidin-7-yl)benzonitrile]	0.05 to 0.5
CN1CCC[C@@H](COc2nc(-c3ccc(C#N)cc3)c(-c3ccc(CN4CCOCC4)c(F)c3)c3nccn23)C1 [Example 80, 4-(8-[3-fluoro-4-(morpholin-4-ylmethyl)phenyl]-5-{[(3R)-1-methylpiperidin-3-yl]methoxy}imidazo[1,2-c]pyrimidin-7-yl)benzonitrile]	≤ 0.05
COc1ncc(-c2c(-c3ccc(C#N)cc3)nc(OC[C@@H]3CCCN(CCC#N)C3)n3ccnc23)cc1F [Example 81, 4-[5-{[(3R)-1-(2-cyanoethyl)piperidin-3-yl]methoxy}-8-(5-fluoro-6-methoxypyridin-3-yl)imidazo[1,2-c]pyrimidin-7-yl]benzonitrile]	0.05 to 0.5
CN(C)c1ncc(-c2c(-c3ccc(C#N)cc3)nc(N3CCC(N(C)C)CC3)n3ccnc23)cc1F [Example 82, 4-{8-[6-(dimethylamino)-5-fluoropyridin-3-yl]-5-[4-(dimethylamino)piperidin-1-yl]imidazo[1,2-c]pyrimidin-7-yl}benzonitrile]	≤ 0.05
Cn1c(=O)oc2cc(-c3c(-c4ccc(C#N)cc4)nc(OC[C@@H]4CCCN(CCC#N)C4)n4ccnc34)ccc21 [Example 83, 4-[5-{[(3R)-1-(2-cyanoethyl)piperidin-3-yl]methoxy}-8-(3-methyl-2-oxo-2,3-dihydro-1,3-benzoxazol-6-yl)imidazo[1,2-c]pyrimidin-7-yl]benzonitrile]	≤ 0.05
CN1CCC[C@@H](COc2nc(-c3ccc(C#N)cc3)c(-c3ccc(CN(C)S(C)(=O)=O)c(F)c3)c3nccn23)C1 [Example 84, N-[4-(7-(4-cyanophenyl)-5-{[(3R)-1-methylpiperidin-3-yl]methoxy}imidazo[1,2-c]pyrimidin-8-yl)-2-fluorobenzyl]-N-methylmethanesulfonamide]	0.05 to 0.5
CN1CCC[C@@H](COc2nc(-c3ccc(C#N)cc3)c(-c3ccc(CN(C)C(=O)N(C)C)c(F)c3)c3nccn23)C1 [Example 85, N-[4-(7-(4-cyanophenyl)-5-{[(3R)-1-methylpiperidin-3-yl]methoxy}imidazo[1,2-c]pyrimidin-8-yl)-2-fluorobenzyl]-N,N′,N′-trimethylurea]	≤ 0.05
